Molecules are shown by their SMILES. Some results are limits rather than exact numbers.

The source of these data is patent US20260297092A1, “PYRAZOLOPYRIMIDINE DERIVATIVES AS INHIBITORS OF NLRP3” (Takeda Pharmaceutical Company Limited, priority 2023, published 2026).

Assay [1] relates to NLRP3 inflammasome (IL-1β production in THP-1 cells). The assay is described as follows: IL-1β TR-FRET Assay (percentage of inhibition at 300 nM, 6 μM or 10 μM). The assay is classed as cell-based, human. The note with it: Homo sapiens, THP-1, 300 nM, LPS priming, ATP activation, read-out: IL-1β inhibitory rate at 300 nM (%). An outline of the steps: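 THP-1 cells were differentiated with 25 ng/mL IFN-γ for 24 h, primed with 50 ng/mL LPS in serum-free medium for 24 h, then given compound for 30 min before 20 mM ATP for 2 h. Supernatant IL-1β was measured by HTRF after 16-24 h at room temperature. Inhibition was normalized between DMSO (high) and 3 μM MCC-950 (low).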
For orientation: TR-FRET usually uses a lanthanide donor and a delayed reading to cut background.

The subject of assay [2] is TNF-α (NF-κB pathway, THP-1 cells). The assay is described as follows: TNF-α Assay (IC50). The format is cell-based, human. Conditions: Homo sapiens, 600 ng/mL LPS, 3 hours. As to the method: TNF-α Assay (Reported as IC50)
Monocytic THP-1 cells (ATCC: TIB-202) were maintained in accordance with the provider's instructions in RPMI media (Life Technologies, Cat #A10491-01); RPMI was supplemented with 10% heat inactivated fetal bovine serum (Hyclone Cat #SH30396.03). The cells were differentiated into macrophages by the addition of 25 ng/mL IFN-7 for 24 hours at 37° C./5% CO2. Media was exchanged with fresh media with no FBS. The cells were plated at 40,000 cells per well in 384-well flat-bottom cell culture plates (Costar 3764) containing compounds (added in 1:1000) in a 1:3.16 serial dilution series in DMSO and were incubated for 30 minutes at 37° C./5% CO2. The NF-κB pathway was activated with the addition of 600 ng/mL LPS and the cells were incubated for 3 hours at 37° C./5% CO2. At the end of the incubation period, supernatant ([…]) was removed, and TNF-alpha were monitored using an ELISA (Human TNF-α ELISA, R&D systems, Cat #DY210) according to the manufacturer's instructions. 100% inhibition is determined with positive control, TPCA-1.
The IC50 values in the TNF-α assay were calculated from a plot of percentage of inhibition versus the inhibitor concentration by a logistics curve fit according to: Y=[Bottom+(Top−Bottom)]/(1+10^[(Log IC50−X)·Hill Slope], where Y was the […] at the inhibitor concentration, X, “Bottom” was the lowest inhibition value, i.e., 0%, “Top” was the maximum inhibition value, i.e., 100%, and the “Hill Slope” described the slope of the sigmoidal curve between the “Bottom” and “Top” values. The curve fitting was conducted with internally developed software.

Regarding `CCOc1nc2nn(-c3c(C)cc(C)cc3O)cc2c(=O)[nH]1` [Example 1, 6-ethoxy-2-(2-hydroxy-4,6-dimethylphenyl)-2,5-dihydro-4H-pyrazolo[3,4-d]pyrimidin-4-one], the inhibition at 0.3 µM in assay [1] worked out at 100%. This compound showed a half-inhibitory concentration (IC50) in assay [2] above 30 µM.

Take `Cc1cc(C)c(-n2cc3c(=O)[nH]c(-c4ccncn4)nc3n2)c(O)c1` [Example 2, 2-(2-hydroxy-4,6-dimethylphenyl)-6-(pyrimidin-4-yl)-2,5-dihydro-4H-pyrazolo[3,4-d]pyrimidin-4-one]: in assay [1], the inhibition at 0.3 µM amounted to 100%. Further, in assay [2], the half-inhibitory concentration (IC50) is above 30 µM.

Consider `COc1nc2nn(-c3c(C)cc(C)cc3O)cc2c(=O)[nH]1` [Example 3, 2-(2-hydroxy-4,6-dimethylphenyl)-6-methoxy-2,5-dihydro-4H-pyrazolo[3,4-d]pyrimidin-4-one], for which the inhibition at 0.3 µM in assay [1] turned out to be 94%. This compound also came in with a half-maximal inhibitory concentration (IC50) in assay [2] above 30 µM.

Turning to `CCCOc1nc2nn(-c3c(C)cc(C)cc3O)cc2c(=O)[nH]1` [Example 4, 2-(2-hydroxy-4,6-dimethylphenyl)-6-propoxy-2,5-dihydro-4H-pyrazolo[3,4-d]pyrimidin-4-one], the inhibition at 0.3 µM in assay [1] turned out to be 92%. In assay [2], this compound registered a concentration for half-maximal inhibition (IC50) above 30 µM.

For `Cc1cc(C)c(-n2cc3c(=O)[nH]c(-c4ccccc4)nc3n2)c(O)c1` [Example 5, 2-(2-hydroxy-4,6-dimethylphenyl)-6-phenyl-2,5-dihydro-4H-pyrazolo[3,4-d]pyrimidin-4-one], the inhibition at 0.3 µM in assay [1] was determined as 99%. Moreover, the IC50 in assay [2] is above 30 µM.

`Cc1cc(C)c(-n2cc3c(=O)[nH]c(C4CC4)nc3n2)c(O)c1` [Example 6, 6-cyclopropyl-2-(2-hydroxy-4,6-dimethylphenyl)-2,5-dihydro-4H-pyrazolo[3,4-d]pyrimidin-4-one]: in assay [1], the inhibition at 0.3 µM stood at 98%. In addition, the IC50 in assay [2] is above 30 µM.

As to `Cc1cc(C)c(-n2cc3c(=O)[nH]c(OC(C)C)nc3n2)c(O)c1` [Example 7, 2-(2-hydroxy-4,6-dimethylphenyl)-6-[(propan-2-yl)oxy]-2,5-dihydro-4H-pyrazolo[3,4-d]pyrimidin-4-one], in assay [1], the inhibition at 0.3 µM was 99%. The half-inhibitory concentration (IC50) in assay [2] is above 30 µM.

For the compound `COCc1nc2nn(-c3c(C)cc(C)cc3O)cc2c(=O)n1C` [Example 8, 2-(2-hydroxy-4,6-dimethylphenyl)-6-(methoxymethyl)-5-methyl-2,5-dihydro-4H-pyrazolo [3,4-d]pyrimidin-4-one], the inhibition at 0.3 µM in assay [1] stood at 92%. Besides, in assay [2], the half-inhibitory concentration (IC50) was above 30 µM.

Consider `Cc1cc(C)c(-n2cc3c(=O)[nH]c(-c4ccccn4)nc3n2)c(O)c1` [Example 9, 2-(2-hydroxy-4,6-dimethylphenyl)-6-(pyridin-2-yl)-2,5-dihydro-4H-pyrazolo[3,4-d]pyrimidin-4-one], for which the inhibition at 0.3 µM in assay [1] is 100%. The same compound had an IC50 in assay [2] above 30 µM.

Consider `Cc1cc(C)c(-n2cc3c(=O)[nH]c(C(C)C)nc3n2)c(O)c1` [Example 10, 2-(2-hydroxy-4,6-dimethylphenyl)-6-(propan-2-yl)-2,5-dihydro-4H-pyrazolo[3,4-d]pyrimidin-4-one], for which the inhibition at 0.3 µM in assay [1] stood at 98%. The same compound yielded a half-inhibitory concentration (IC50) in assay [2] above 30 µM.

On to `CCOc1nc2nn(-c3c(O)cc(C)cc3C3CC3)cc2c(=O)[nH]1` [Example 11, 2-(2-cyclopropyl-6-hydroxy-4-methylphenyl)-6-ethoxy-2,5-dihydro-4H-pyrazolo[3,4-d]pyrimidin-4-one], for which the inhibition at 0.3 µM in assay [1] came to 99%. The compound further came in with an IC50 in assay [2] above 30 µM.

As to `Cc1cc(C)c(-n2cc3c(=O)[nH]c(-c4ccc(F)cn4)nc3n2)c(O)c1` [Example 13, 6-(5-fluoropyridin-2-yl)-2-(2-hydroxy-4,6-dimethylphenyl)-2,5-dihydro-4H-pyrazolo[3,4-d]pyrimidin-4-one], the inhibition at 0.3 µM in assay [1] was 99%. The compound also showed a concentration for half-maximal inhibition (IC50) in assay [2] above 30 µM.

Consider `Cc1cc(C)c(-n2cc3c(=O)[nH]c(O[C@H]4CCOC4)nc3n2)c(O)c1` [Example 14, 2-(2-hydroxy-4,6-dimethylphenyl)-6-{[(3S)-oxolan-3-yl]oxy}-2,5-dihydro-4H-pyrazolo[3,4-d]pyrimidin-4-one], for which, in assay [1], the inhibition at 0.3 µM was 96%. For the same compound, the IC50 in assay [2] was above 30 µM.

Take `Cc1cc(C)c(-n2cc3c(=O)[nH]c(-c4ccnc(C)n4)nc3n2)c(O)c1` [Example 15, 2-(2-hydroxy-4,6-dimethylphenyl)-6-(2-methylpyrimidin-4-yl)-2,5-dihydro-4H-pyrazolo [3,4-d]pyrimidin-4-one]: the inhibition at 0.3 µM in assay [1] came out at 99%. Further, the IC50 in assay [2] is above 30 µM.

Consider `CCOc1nc2nn(-c3c(C)ccc(C)c3O)cc2c(=O)[nH]1` [Example 16, 6-ethoxy-2-(2-hydroxy-3,6-dimethylphenyl)-2,5-dihydro-4H-pyrazolo[3,4-d]pyrimidin-4-one], for which the inhibition at 0.3 µM in assay [1] is 101%. This compound registered an IC50 in assay [2] above 30 µM.

For the compound `CCCCc1nc2nn(-c3c(C)cc(C)cc3O)cc2c(=O)[nH]1` [Example 17, 6-butyl-2-(2-hydroxy-4,6-dimethylphenyl)-2,5-dihydro-4H-pyrazolo[3,4-d]pyrimidin-4-one], in assay [1], the inhibition at 0.3 µM was 99%. Moreover, the 50% inhibitory concentration (IC50) in assay [2] was above 30 µM.

As for `Cc1cc(C)c(-n2cc3c(=O)[nH]c(C4CCCCO4)nc3n2)c(O)c1` (stereo not drawn) [Example 18, 2-(2-hydroxy-4,6-dimethylphenyl)-6-(oxan-2-yl)-2,5-dihydro-4H-pyrazolo[3,4-d]pyrimidin-4-one], in assay [1], the inhibition at 0.3 µM turned out to be 99%. In assay [2], this compound showed an IC50 above 30 µM.

With `CCOc1nc2nn(-c3c(F)cc(Br)cc3C(F)(F)F)cc2c(=O)[nH]1` [Example 19, 2-[4-bromo-2-fluoro-6-(trifluoromethyl)phenyl]-6-ethoxy-2,5-dihydro-4H-pyrazolo[3,4-d]pyrimidin-4-one], the inhibition at 0.3 µM in assay [1] stood at 95%. The compound also returned an IC50 in assay [2] above 30 µM.

As to `Cc1cc(C)c(-n2cc3c(=O)[nH]c(-c4ccccc4F)nc3n2)c(O)c1` [Example 20, 6-(2-fluorophenyl)-2-(2-hydroxy-4,6-dimethylphenyl)-2,5-dihydro-4H-pyrazolo[3,4-d]pyrimidin-4-one], the inhibition at 0.3 µM in assay [1] came to 100%. Further, the half-maximal inhibitory concentration (IC50) in assay [2] is above 30 µM.

For the compound `COc1ccc(-c2nc3nn(-c4c(C)cc(C)cc4O)cc3c(=O)[nH]2)nc1` [Example 21, 2-(2-hydroxy-4,6-dimethylphenyl)-6-(5-methoxypyridin-2-yl)-2,5-dihydro-4H-pyrazolo[3,4-d]pyrimidin-4-one], the inhibition at 0.3 µM in assay [1] came out at 98%. For the same compound, the IC50 in assay [2] is above 30 µM.

On to `COCCOc1nc2nn(-c3c(C)cc(C)cc3O)cc2c(=O)[nH]1` [Example 22, 2-(2-hydroxy-4,6-dimethylphenyl)-6-(2-methoxyethoxy)-2,5-dihydro-4H-pyrazolo [3,4-d]pyrimidin-4-one], for which the inhibition at 0.3 µM in assay [1] amounted to 101%. This compound also came in with an IC50 in assay [2] above 30 µM.

With `Cc1cc(C)c(-n2cc3c(=O)[nH]c(-c4ccn(C)n4)nc3n2)c(O)c1` [Example 23, 2-(2-hydroxy-4,6-dimethylphenyl)-6-(1-methyl-1H-pyrazol-3-yl)-2,5-dihydro-4H-pyrazolo[3,4-d]pyrimidin-4-one], the inhibition at 0.3 µM in assay [1] is 100%. The compound further came in with a concentration for half-maximal inhibition (IC50) in assay [2] above 30 µM.

For the compound `CCOc1nc2nn(-c3c(C)cc(Br)cc3F)cc2c(=O)[nH]1` [Example 24, 2-(4-bromo-2-fluoro-6-methylphenyl)-6-ethoxy-2,5-dihydro-4H-pyrazolo[3,4-d]pyrimidin-4-one], the inhibition at 0.3 µM in assay [1] is 99%. The compound further gave an IC50 in assay [2] above 30 µM.

With `Cc1cc(C)c(-n2cc3c(=O)[nH]c(C4(C)CC4)nc3n2)c(O)c1` [Example 25, 2-(2-hydroxy-4,6-dimethylphenyl)-6-(1-methylcyclopropyl)-2,5-dihydro-4H-pyrazolo[3,4-d]pyrimidin-4-one], in assay [1], the inhibition at 0.3 µM came to 100%. In addition, in assay [2], the IC50 was above 30 µM.

On to `CCOc1nc2nn(-c3c(C)cc(C)cc3O)c(Cl)c2c(=O)[nH]1` [Example 26, 3-chloro-6-ethoxy-2-(2-hydroxy-4,6-dimethylphenyl)-2,5-dihydro-4H-pyrazolo[3,4-d]pyrimidin-4-one], for which, in assay [1], the inhibition at 0.3 µM turned out to be 94%. This compound also displayed an IC50 in assay [2] above 30 µM.

Turning to `COC(C)Cc1nc2nn(-c3c(C)cc(C)cc3O)cc2c(=O)[nH]1` (stereo not drawn) [Example 27, 2-(2-hydroxy-4,6-dimethylphenyl)-6-(2-methoxypropyl)-2,5-dihydro-4H-pyrazolo[3,4-d]pyrimidin-4-one], the inhibition at 0.3 µM in assay [1] came out at 94%. In assay [2], the IC50 is above 30 µM.

`COCc1nc2nn(-c3c(C)cc(C)cc3O)cc2c(=O)[nH]1` [Example 28, 2-(2-hydroxy-4,6-dimethylphenyl)-6-(methoxymethyl)-2,5-dihydro-4H-pyrazolo[3,4-d]pyrimidin-4-one]: the inhibition at 0.3 µM in assay [1] was found to be 101%. The compound also came in with an IC50 in assay [2] above 30 µM.

One may read the IC50 as the concentration needed to halve the response being measured.
